Data on seven compounds can be found in US8236779B2, “Antiviral nucleosides” (Roche Palo Alto LLC, priority 2010, dated 2012).

The subject of data set [1] is HCV. To be noted: monotherapy; cited from earlier work.
Data set [2] has as its target T1, HCV polymerase (NS5B570n-Con1) (Hepatitis C virus genotype 1b, UniProt Q9WMX2).
T1 construct: a 21 amino acid C-terminal deletion of full-length HCV polymerase derived from HCV Con1 strain; made in house; host or cells: E. coli BL21(DE3) pLysS, plasmid pET17b
Put plainly: HCV NS5B RNA polymerase activity. The format is biochemical, HCV Con1 strain. The procedure:
The enzymatic activity of HCV polymerase (NS5B570n-Con1) was measured as the incorporation of radiolabeled nucleotide monophosphates into acid insoluble RNA products. Unincorporated radiolabeled substrate was removed by filtration and scintillant was added to the washed and dried filter plate containing radiolabeled RNA product. The amount of RNA product generated by NS5B570n-Con1 at the end of the reaction was directly proportional to the amount of light emitted by the scintillant.
The HCV polymerase used in the enzymatic activity assay is a 21 amino acid C-terminal deletion of full-length HCV polymerase derived from HCV Con1 strain, genotype 1b (GenBank accession number AJ242654) (NS5B570n-Con1). The NS5B570n-Cont was sub-cloned downstream to the T7 promoter of the plasmid expression construct pET17b and transformed into E. coli strain BL21(DE3) pLysS for protein expression. A single colony was used to start an innoculum for a 10 L culture in LB media supplemented with 100 μg/mL ampicillin at 37° C. […]
The amount of light emitted from the scintillant was converted to counts per minute (CPM) on a Topcount® plate reader (Perkin-Elmer, Energy Range: Low, Efficiency Mode: Normal, Count Time: 1 min, Background Subtract: none, Cross talk reduction: Off).
Data was analyzed in Excel® (Microsoft®) and ActivityBase® (Idbs®). […] All data was expressed as a percentage of the positive control. […]

The test system of data set [3] is HCV. Conditions: cited from earlier work.
Data set [4] concerns human hepatoma Huh7 cells. Description: Phosphorylation in Huh7 replicon cells. The data set is classed as in vitro ADME. From the text: (FIG. 2) Since the cell specific phosphorylation takes place in the target tissue for HCV replication, there is the potential that 4′-AU will be selectively phosphorylated in the target tissue vis-à-vis other tissues thereby minimizing off target toxicity.
(In general: In antiviral work, replicon cells carry a viral genome segment that copies itself.)

The subject of data set [5] is primary human hepatocytes. Put plainly: Uptake and phosphorylation in primary human hepatocytes. The format is in vitro ADME. The procedure:
The analysis of uptake and phosphorylation of the nucleoside analog 4AU in primary human hepatocytes was performed as previously published (Ma, H. et al. J. Biol. Chem. 2007, 282:29812-29820). Fresh human hepatocytes were plated and incubated with ^3H-labeled 4AU for different time spans. At the time of cell harvest the cell culture medium was aspirated, and the cells were washed once with cold phosphate-buffered saline. The cells were scraped into 1 mL of pre-chilled 60% (v/v) methanol containing 10 mM EDTA and extracted in methanol for 24 h at −20° C. The extracted samples were then centrifuged at 10,000×g for 15 min to remove cell debris. The supernatant was transferred to new tubes and evaporated in a speed vacuum at room temperature. The dried pellets of cell extracts were dissolved in H2O. Before HPLC analysis, cell extract samples were spiked with unlabeled reference standards 4AU and 4AU-mono-, di- and triphosphate derivatives.
The phosphorylation derivatives of 4AU were separated by ion exchange HPLC with a Whatman Partisil 10 SAX (4.6×250 mm) column coupled to a radiometric detector (β-RAM, IN/US Systems, Inc.). The mobile phase gradient changed linearly from 99% buffer A (H2O) and 1% buffer B (0.5 M KH2PO4+0.8 M KCl) to 100% buffer B between 4 and 16 minutes. 100% buffer B ran from 16 minutes to 26 minutes and changed back to 100% A in 1 minute. Buffer A ran until 32 minutes. […]

For data set [6], the system named is HCV replicon (human hepatoma Huh7 cells). To be noted: cited from earlier work.

Take `NC(=O)c1ncn([C@@H]2O[C@H](CO)[C@@H](O)[C@H]2O)n1` [ribavirin, 1-((2R,3R,4S,5R)-3,4-Dihydroxy-5-hydroxymethyl-tetrahydro-furan-2-yl)-1H-[1,2,4]triazole-3-carboxylic acid amide]: in the data set with HCV [1], the “effect on serum levels of HCV-RNA” value is listed as “does not lower serum levels of HCV-RNA” and the “patients with serum amino transferase levels reduced to normal” value is given as 40%.
As to `CC(=O)OC(O)[C@@]1(N=[N+]=[N-])O[C@@H](n2ccc(=O)[nH]c2=O)[C@@](O)(OC(C)=O)[C@@]1(O)OC(C)=O` (some centres unmarked), the melting point came to 158 °C.
Turning to `[N-]=[N+]=N[C@]1(COP(=O)(O)OP(=O)(O)OP(=O)(O)O)O[C@@H](n2ccc(N)nc2=O)[C@H](O)[C@@H]1O` [4′-AC-triphosphate, 4′-azido-cytidine triphosphate], the IC50 in data set [2] was 29 ± 0.13 µM.
The same measure, in the same setting: under `[N-]=[N+]=N[C@]1(COP(=O)(O)OP(=O)(O)OP(=O)(O)O)O[C@@H](n2ccc(=O)[nH]c2=O)[C@H](O)[C@@H]1O` [4′-AU triphosphate, 4-azidouridine triphosphate] stands 0.46 ± 0.088 µM.
As for `[N-]=[N+]=N[C@]1(CO)O[C@@H](n2ccc(N)nc2=O)[C@H](O)[C@@H]1O` [4′-AC, 4′-azido-cytidine], in the data set with HCV [3], the “inhibition of viral replication” value is recorded as “potent inhibitor of viral replication”.
As for `CCC(=O)O[C@H]1[C@H](n2ccc(=O)[nH]c2=O)O[C@@](CO)(N=[N+]=[N-])[C@H]1OC(=O)CC` [I-1, Propionic acid (2R,3R,4S,5R)-5-azido-2-(2,4-dioxo-3,4-dihydro-2H-pyrimidin-1-yl)-5-hydroxymethyl-4-propionyloxy-tetrahydro-furan-3-yl ester], the melting point was in the range of 118 to 120 °C.
In the case of `[N-]=[N+]=N[C@]1(CO)O[C@@H](n2ccc(=O)[nH]c2=O)[C@H](O)[C@@H]1O` [4′-AU, 4′-azido-uridine], in data set [4], the “phosphorylation in Huh7 cells used in the replicon assay” value is on record as “lack of phosphorylation”. In addition, the “efficiency of phosphorylation relative to 4′-AC” value in data set [5] (4′-AU vs 4′-AC, human hepatocytes) is reported as “approximately 10 fold”. In addition, the “phosphorylation in primary human hepatocytes” value in data set [5] (primary human hepatocytes) is listed as “phosphorylation does occur efficiently”. The “activity in the replicon assay” value in data set [6] is “inactive”.

The melting point is the temperature, or range, at which the solid turns liquid. The term IC50 denotes the concentration that inhibits the measured activity by half.
